Results published in patent publication US8778985B2, “Inhibiting amyloid-beta peptide/rage interaction at the blood-brain barrier” (The University of Rochester, priority 2006, dated 2014).

Molecular target: T1, RAGE (Homo sapiens, UniProt Q15109)
T1 construct: expressed in transfected cells; host or cells: Chinese hamster ovary (CHO) cells
Test: 125I-Aβ40 specific binding on RAGE-transfected CHO cells at 4° C., competitive inhibition
Details: for inhibitory constant (Ki) of Aβ-RAGE binding: competitive
Description: Data are mean±s.e.m., n=3 per group.
All three are tertiary amides substituted with a large, hydrophobic hydrocarbon moiety and a monosubstituted aromatic moiety. Linkage to the monosubstituted aromatic is either direct (FPS2) or via an alkyl (FPS1) or heteroaromatic (FPS3) spacer. Two of the compounds also feature a highly electron-poor substituted benzene ring (3-nitro, 4-chloro for FPS1; 3,5-dinitro for FPS2).

T1 sequence (Q15109 23-404): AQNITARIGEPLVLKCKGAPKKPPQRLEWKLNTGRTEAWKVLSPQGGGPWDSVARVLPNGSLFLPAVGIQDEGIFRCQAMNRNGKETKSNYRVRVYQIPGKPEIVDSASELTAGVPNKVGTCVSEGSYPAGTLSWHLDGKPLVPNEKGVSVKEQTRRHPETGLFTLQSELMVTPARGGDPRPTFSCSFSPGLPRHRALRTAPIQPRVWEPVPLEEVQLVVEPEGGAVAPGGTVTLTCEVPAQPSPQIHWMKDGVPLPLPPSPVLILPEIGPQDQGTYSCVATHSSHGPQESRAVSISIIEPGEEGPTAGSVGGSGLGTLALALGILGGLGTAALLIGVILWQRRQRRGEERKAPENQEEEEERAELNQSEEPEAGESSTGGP

Ki/Kd ratio (Ki compound's inhibitory constant, Kd Aβ-RAGE binding constant)	inhibitory constant (Ki) of Aβ-RAGE binding	SMILES
2.6	low	CCOCCCN(CC(=O)N(Cc1cccn1Cc1ccc(F)cc1)C1CCCCC1)C(=O)C(C)(C)CCl [FPS1, 3-chloro-N-[2-[cyclohexyl[[1-[(4-fluorophenyl)methyl]-1H-pyrrol-2-yl]methyl]amino]-2-oxoethyl]-N-(3-ethoxypropyl)-2,2-dimethyl-(9Cl)-propanamide]
1.6	low	CCCCCC(=Cc1ccccc1)CN(CCc1c[nH]c2ccccc12)C(=O)c1ccc(Cl)c([N+](=O)[O-])c1 [FPS3, 4-chloro-N-[2-(1H-indo-3-yl)-ethyl]-3-nitro-N-(2-pentyl-3-phenyl-allyl)-benzamide]
